Laboratory results taken from patent US6420367B1, “Pyrimidine derivatives exhibiting antitumor activity” (Shionogo & Co., Ltd., priority 1998, dated 2002).
Converted amounts (≈) assume the structure as drawn.

Experiments:
[1] = test system: DT-R cells (pRRE3-luc-transfected v-ki-ras-transformed NIH3T3 cells); signal derived from Ras oncogene products; test: Inhibitory effect against cellular signaling derived from Ras oncogene products: luciferase reporter, dissociation of DT-R from DT-C activity (MAC); type: cell-based, mouse; settings: minimal tested concentration at which luciferase activities of DT-C cells and DT-R cells dissociated
From the text: Test Example 1 Inhibitory Effect Against Cellular Signaling Derived From Ras Oncogene Products
1) Establishment of Cell Lines Used in Assay
Based on the reporter plasmid (pGV-P (Toyo Ink, Japan)), in which luciferase gene was ligated to SV40-derived minimal promoter, we constructed a plasmid designated pRRE3-luc by inserting 3 copies of chemically synthesized oligonucleotides (Sequence: CAGGATATGACTCT, derived from mouse NVL-3 (M. A. Reddy et al.(1992)Mol. Endocrinol., 6, 1051)) into upstream of the promoter. v-ki-ras-transformed NIH3T3 cells (DT cells, provided by Dr. Makoto Noda (Kyoto Univ., School of medicine)) were transfected with this plasmid by liposome-mediated transfection and transfected cell lines stably incorporated and maintained each plasmid were obtained. We named pGV-P and pRRE3-transfected cell line as DT-C and DT-R, respectively and used in the assay described below.
2) Preparation of Samples
i) All the cell lines were cultured in Dulbecco's Modified Essential Medium (DMEM: 10% Fetal Calf Serum(FCS: Hyclone, USA)) including […] kanamycin (Meiji Seika, Japan) in humidified incubator under condition of 5% CO2 at 37° C.
ii) DT-C and DT-R cells were seeded at 2500 cells/well into flat-bottom 96 well multiplate (Sumitomo bakelite) and incubated for 24 hours.
iii) Test compounds were prepared as 1 mg/ml DMSO solution.
iv) The solution of test compounds were added to the culture. Tested compounds are used at the concentration from […] to 0.51 ng/ml with by 3-fold dilution.
v) After 24 hours, the culture supernatant was completely aspirated and […] of cell-lysing solution (PGC-50 (Toyo Ink, Japan)) was added before cells were dried up. In order to the cells were lysed completely, multiwell plates were left at room temperature for 10 to 30 min. The plates were wrapped up and stored at −20° C. till the day of measurement.
3) Measurement of Samples
i) Melt the samples by putting 96 well multiplate at 37° C. and add 90 μl/well 25 mM Tris (pH 7.5).
ii) Transfer 50 μl of the sample (110 μl) to the 96 well microplate for measurement (Microlite 1 (Dynatech)).
iii) Measure the samples by the luminometer, LUMINOUS CT9000D (Dia-Yatron, Japan). We used Pickagene luminescence kit PGL2000 or LT2.0 (Toyo Ink, Japan) as substrates for luminescence measurement (50 μl/well).
4) Judgment of the Results
i) The luciferase activity of DT-C cells and DT-R cells were plotted in the graph where the relative activity and the compound concentration were expressed as Y-axis and X-axis, respectively. We judged by the degree of dissociation between the activities of DT-C cells and DT-R cells as an index.
ii) Concretely, efficacy of the compound was expressed by two values described below.
a) Among the points of concentration tested, the minimal concentration (Minimal Active Concentration: MAC), at which the activities of DT-C cells and DT-R cells dissociated, was shown as an index of efficacy of the compound.

[2] = test system: human pancreas cancer PANC-1; test: In vitro cell growth inhibition test, MTT assay; type: cell-based; settings: MTT assay 4 days after compound addition
From the text: (§1) Test Example 2 In Vitro Cell Growth Inhibition Test Cells and MTT Assay
(§2) Human squamous lung cancer […], human squamous lung cancer Ma44, human lung adenocarcinoma A549, human colon cancer HT29 and human pancreas cancer PANC-1 were used.

human colon cancer HT29 = test: In vitro cell growth inhibition test, MTT assay; type: cell-based; settings: MTT assay 4 days after compound addition
From the text: as §1, §2

[3] = test system: human squamous lung cancer RERF-RC-AI; test: In vitro cell growth inhibition test, MTT assay; type: cell-based; settings: MTT assay 4 days after compound addition
From the text: as §1, §2

[4] = test system: human squamous lung cancer Ma44; test: In vitro cell growth inhibition test, MTT assay; type: cell-based; settings: MTT assay 4 days after compound addition
From the text: as §1, §2

[5] = test system: human lung adenocarcinoma A549; test: In vitro cell growth inhibition test, MTT assay; type: cell-based; settings: MTT assay 4 days after compound addition
From the text: as §1, §2

Compound | IC50, PANC-1 [2] [mg/L] | IC50, HT29 (human colon cancer HT29) [mg/L] | IC50, RERF-LC-AI [3] [mg/L] | IC50, Ma44 [4] [mg/L] | IC50, A549 [5] [mg/L] | MAC (Minimal Active Concentration) [1] [µg/mL]
CCNC(=Nc1nc(C)ncc1CSc1nnc(-c2ccccc2NC(C)=O)o1)NC [Compound A-2] | 0.015 (≈ 0.034 µM) | 0.015 (≈ 0.034 µM) | 0.009 (≈ 0.0204 µM) | 0.022 (≈ 0.0499 µM) | 0.017 (≈ 0.0386 µM) | 0.0412
CCNC(=Nc1ncncc1CSc1nnc(-c2ccc(N)cc2)o1)NCC [Compound A-3] | 0.015 (≈ 0.0376 µM) | 0.0066 (≈ 0.0166 µM) | 0.026 (≈ 0.0652 µM) | 0.09 (≈ 0.226 µM) | 0.035 (≈ 0.0878 µM) | 0.0412
CCNC(=Nc1nc(C)ncc1CSc1nnc(-c2cc(F)c(F)cc2N)o1)NCC [Compound A-52] | 0.024 (≈ 0.0535 µM) | – | – | 0.11 (≈ 0.245 µM) | 0.049 (≈ 0.109 µM) | 0.123
CCNC(=Nc1ncncc1CSc1nnc(-c2ccccc2NC(C)=O)o1)NCC [Compound A-57] | 0.0088 (≈ 0.02 µM) | – | – | 0.025 (≈ 0.0567 µM) | 0.014 (≈ 0.0318 µM) | 0.0137
CCNC(=Nc1ncncc1CSc1nnc(-c2ccc(F)cc2N)o1)NCC [Compound A-65] | 0.0021 (≈ 0.00504 µM) | 0.0014 (≈ 0.00336 µM) | 0.0014 (≈ 0.00336 µM) | 0.09 (≈ 0.216 µM) | 0.0028 (≈ 0.00672 µM) | <0.000508
CNC(=Nc1nc(C)ncc1CSc1nnc(-c2ccccc2N)o1)NC [Compound A-70] | 0.015 (≈ 0.039 µM) | 0.0084 (≈ 0.0218 µM) | 0.0067 (≈ 0.0174 µM) | 0.032 (≈ 0.0832 µM) | 0.013 (≈ 0.0338 µM) | 0.123
CCNC(=Nc1nc(C)ncc1CSc1nnc(-c2ccc([N+](=O)[O-])cc2)o1)NCC [Compound A-82] | 0.014 (≈ 0.0316 µM) | 0.006 (≈ 0.0136 µM) | 0.008 (≈ 0.0181 µM) | 0.014 (≈ 0.0316 µM) | 0.031 (≈ 0.0701 µM) | <0.000508
CCNC(=Nc1nc(C)ncc1CSc1nnc(-c2ccc(C(=O)c3ccccc3)cc2)o1)NCC [Compound A-84] | 0.3 (≈ 0.598 µM) | 0.38 (≈ 0.758 µM) | 0.18 (≈ 0.359 µM) | 0.41 (≈ 0.817 µM) | 0.44 (≈ 0.877 µM) | –
CCNC(=Nc1ncncc1CSc1nnc(-c2ccc(SC)cc2)o1)NCC [Compound A-120] | 0.055 (≈ 0.128 µM) | 0.023 (≈ 0.0535 µM) | 0.024 (≈ 0.0559 µM) | 0.1 (≈ 0.233 µM) | 1.3 (≈ 3.03 µM) | 0.123
CCNC(=Nc1ncncc1CSc1nnc(-c2ccc([N+](=O)[O-])cc2)o1)NCCN [Compound A-122] | 0.21 (≈ 0.474 µM) | 0.089 (≈ 0.201 µM) | 0.14 (≈ 0.316 µM) | 0.3 (≈ 0.676 µM) | 2.1 (≈ 4.74 µM) | 1.11
Cc1ncc(CSc2nnc(-c3ccc([N+](=O)[O-])cc3)o2)c(N=C(NCC(C)C)NCC(C)C)n1 [Compound A-129] | 0.21 (≈ 0.421 µM) | 0.3 (≈ 0.602 µM) | 0.17 (≈ 0.341 µM) | 0.33 (≈ 0.662 µM) | 0.43 (≈ 0.862 µM) | –
CCNC(=Nc1nc(C)ncc1CSc1nnc(-c2ccc([N+](=O)[O-])cc2F)o1)NCC [Compound A-132] | 0.081 (≈ 0.176 µM) | 0.039 (≈ 0.0847 µM) | 0.05 (≈ 0.109 µM) | 0.077 (≈ 0.167 µM) | 0.18 (≈ 0.391 µM) | 0.123
CCNC(=Nc1nc(C)ncc1CSc1nnc(-c2ccc([N+](=O)[O-])cc2)o1)NC(C)C [Compound A-134] | 0.025 (≈ 0.0548 µM) | 0.013 (≈ 0.0285 µM) | 0.016 (≈ 0.035 µM) | 0.026 (≈ 0.057 µM) | 0.049 (≈ 0.107 µM) | 0.0137
CCNC(=Nc1ncncc1CSc1nnc(-c2cc[n+]([O-])cc2)o1)NCC [Compound D-42] | 0.17 (≈ 0.425 µM) | 0.071 (≈ 0.177 µM) | 0.082 (≈ 0.205 µM) | 0.38 (≈ 0.949 µM) | 0.57 (≈ 1.42 µM) | –
CCNC(=Nc1ncncc1CSc1nnc(-c2csc([N+](=O)[O-])c2)o1)NCC [Compound D-43] | 0.1 (≈ 0.23 µM) | 0.1 (≈ 0.23 µM) | 0.21 (≈ 0.483 µM) | 0.2 (≈ 0.46 µM) | 0.27 (≈ 0.621 µM) | –

Further lines, with some results ahead:

IC50, PANC-1 [2] [mg/L] | IC50, HT29 (human colon cancer HT29) [mg/L] | IC50, RERF-LC-AI [3] [mg/L] | IC50, Ma44 [4] [mg/L] | IC50, A549 [5] [mg/L] | Compound | MAC (Minimal Active Concentration) [1] [µg/mL]
0.016 (≈ 0.0402 µM) | 0.012 (≈ 0.0301 µM) | 0.018 (≈ 0.0452 µM) | 0.039 (≈ 0.0979 µM) | 0.022 (≈ 0.0552 µM) | CCNC(=Nc1nc(C)ncc1CSc1nnc(-c2ccccc2N)o1)NC [Compound A-1] | 0.0412
0.03 (≈ 0.0671 µM) | 0.015 (≈ 0.0336 µM) | 0.013 (≈ 0.0291 µM) | 0.086 (≈ 0.192 µM) | 0.034 (≈ 0.0761 µM) | CCNC(=Nc1nc(C)ncc1CSc1nnc(-c2ccc(N)cc2Cl)o1)NCC [Compound A-64] | 0.370
0.18 (≈ 0.422 µM) | 0.093 (≈ 0.218 µM) | 0.077 (≈ 0.181 µM) | 0.31 (≈ 0.727 µM) | 0.72 (≈ 1.69 µM) | CCNC(=Nc1nc(C)ncc1CSc1nnc(-c2ccc(N)c(C)c2)o1)NCC [Compound A-71] | 1.11
0.017 (≈ 0.0413 µM) | 0.01 (≈ 0.0243 µM) | 0.008 (≈ 0.0194 µM) | 0.012 (≈ 0.0292 µM) | 0.034 (≈ 0.0826 µM) | CCNC(=Nc1nc(C)ncc1CSc1nnc(-c2ccc(C)cc2)o1)NCC [Compound A-74] | 0.123
0.016 (≈ 0.0374 µM) | 0.008 (≈ 0.0187 µM) | 0.008 (≈ 0.0187 µM) | 0.1 (≈ 0.234 µM) | 0.02 (≈ 0.0468 µM) | CCNC(=Nc1nc(C)ncc1CSc1nnc(-c2ccc(N)cc2N)o1)NCC [Compound A-76] | 0.0137
0.048 (≈ 0.111 µM) | 0.044 (≈ 0.102 µM) | 0.03 (≈ 0.0695 µM) | 0.11 (≈ 0.255 µM) | 0.13 (≈ 0.301 µM) | CCNC(=Nc1nc(C)ncc1CSc1nnc(-c2ccccc2Cl)o1)NCC [Compound A-77] | –
0.037 (≈ 0.0899 µM) | 0.021 (≈ 0.051 µM) | 0.017 (≈ 0.0413 µM) | 0.052 (≈ 0.126 µM) | 0.063 (≈ 0.153 µM) | CCNC(=Nc1nc(C)ncc1CSc1nnc(-c2ccccc2C)o1)NCC [Compound A-78] | –
0.052 (≈ 0.131 µM) | 0.036 (≈ 0.0906 µM) | – | 0.055 (≈ 0.138 µM) | 0.065 (≈ 0.164 µM) | CCNC(=Nc1nc(C)ncc1CSc1nnc(-c2ccccc2)o1)NCC [Compound A-107] | 0.370
2.4 (≈ 5.96 µM) | 0.18 (≈ 0.447 µM) | 0.083 (≈ 0.206 µM) | 5.2 (≈ 12.9 µM) | 3.2 (≈ 7.95 µM) | CCNC(=Nc1nc(C)ncc1CSc1nnc(-c2c[nH]nc2N)o1)NCC [Compound D-7] | –
